Experimental data reported in publication PMC6704710, “Preclinical evaluation of 3D185, a novel potent inhibitor of FGFR1/2/3 and CSF-1R, in FGFR-dependent and macrophage-dominant cancer models” (Journal of Experimental & Clinical Cancer Research : CR, 2019).

Assays:
Assay in all cases: Eurofins kinase panel
Type in all cases: biochemical
Settings in all cases: read-out: Inhibition rate (%)
ALK(h) = target: T1, ALK(h) (Homo sapiens, UniProt Q9UM73)
T1 construct: purchased Eurofins (KinaseProfiler)
T1 sequence (Q9UM73 19-1620): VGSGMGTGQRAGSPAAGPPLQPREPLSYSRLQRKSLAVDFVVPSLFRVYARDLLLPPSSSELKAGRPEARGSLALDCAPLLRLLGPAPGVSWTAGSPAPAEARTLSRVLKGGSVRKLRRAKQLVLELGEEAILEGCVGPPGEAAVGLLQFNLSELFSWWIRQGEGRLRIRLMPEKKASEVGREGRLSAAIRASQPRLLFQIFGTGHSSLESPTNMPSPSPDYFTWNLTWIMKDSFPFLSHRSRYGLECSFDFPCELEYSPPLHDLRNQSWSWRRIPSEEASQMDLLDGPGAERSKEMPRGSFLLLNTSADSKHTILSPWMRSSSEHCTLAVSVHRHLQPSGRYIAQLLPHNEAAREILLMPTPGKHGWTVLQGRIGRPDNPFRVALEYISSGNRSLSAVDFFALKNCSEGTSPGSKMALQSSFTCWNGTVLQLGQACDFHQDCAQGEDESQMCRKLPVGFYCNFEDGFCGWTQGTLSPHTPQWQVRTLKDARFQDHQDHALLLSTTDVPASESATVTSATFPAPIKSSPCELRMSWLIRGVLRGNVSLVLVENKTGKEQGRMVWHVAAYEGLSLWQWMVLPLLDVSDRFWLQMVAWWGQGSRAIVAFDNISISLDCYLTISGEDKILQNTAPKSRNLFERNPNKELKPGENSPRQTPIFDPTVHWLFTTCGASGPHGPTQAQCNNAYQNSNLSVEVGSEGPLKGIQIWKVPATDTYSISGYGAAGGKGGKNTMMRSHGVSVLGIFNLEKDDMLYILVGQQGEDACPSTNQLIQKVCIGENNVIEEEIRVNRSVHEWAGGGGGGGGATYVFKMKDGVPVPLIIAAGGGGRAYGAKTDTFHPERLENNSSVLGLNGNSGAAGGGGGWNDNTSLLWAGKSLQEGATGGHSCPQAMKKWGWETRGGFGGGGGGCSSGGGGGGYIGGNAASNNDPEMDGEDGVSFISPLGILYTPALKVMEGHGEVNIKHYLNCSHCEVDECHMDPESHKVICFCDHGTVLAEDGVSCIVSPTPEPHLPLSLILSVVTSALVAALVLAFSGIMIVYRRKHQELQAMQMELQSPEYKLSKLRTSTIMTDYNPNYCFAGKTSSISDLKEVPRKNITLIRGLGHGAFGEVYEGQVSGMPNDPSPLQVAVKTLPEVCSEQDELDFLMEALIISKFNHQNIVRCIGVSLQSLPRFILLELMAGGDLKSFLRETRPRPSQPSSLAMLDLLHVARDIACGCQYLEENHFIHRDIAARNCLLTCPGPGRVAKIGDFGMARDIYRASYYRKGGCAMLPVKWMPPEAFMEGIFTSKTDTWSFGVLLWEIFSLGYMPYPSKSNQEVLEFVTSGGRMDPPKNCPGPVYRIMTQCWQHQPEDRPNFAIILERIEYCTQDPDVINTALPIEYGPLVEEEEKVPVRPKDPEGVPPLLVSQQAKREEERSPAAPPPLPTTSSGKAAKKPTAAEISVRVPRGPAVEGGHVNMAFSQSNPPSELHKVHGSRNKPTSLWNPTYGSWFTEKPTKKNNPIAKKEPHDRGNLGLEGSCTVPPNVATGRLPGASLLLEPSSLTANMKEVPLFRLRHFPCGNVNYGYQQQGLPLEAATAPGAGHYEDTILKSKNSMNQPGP

CaMKIV(h) = target: T2, CaMKIV(h) (Homo sapiens, UniProt Q16566)
T2 construct: purchased Eurofins (KinaseProfiler)
T2 sequence (Q16566 1-473): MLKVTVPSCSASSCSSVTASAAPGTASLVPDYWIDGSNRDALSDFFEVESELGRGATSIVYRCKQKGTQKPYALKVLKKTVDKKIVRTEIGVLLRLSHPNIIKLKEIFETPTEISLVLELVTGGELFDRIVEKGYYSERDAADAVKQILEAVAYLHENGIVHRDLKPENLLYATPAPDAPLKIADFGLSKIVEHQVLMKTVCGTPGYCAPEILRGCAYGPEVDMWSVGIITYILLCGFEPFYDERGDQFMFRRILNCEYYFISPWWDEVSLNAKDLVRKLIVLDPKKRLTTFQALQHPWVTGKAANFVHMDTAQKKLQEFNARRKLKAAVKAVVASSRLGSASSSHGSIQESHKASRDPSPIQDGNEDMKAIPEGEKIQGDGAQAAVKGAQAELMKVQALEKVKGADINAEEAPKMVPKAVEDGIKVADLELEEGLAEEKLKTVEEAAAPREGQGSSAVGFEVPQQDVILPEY

EGFR(L858R)(h) = target: T3, EGFR(L858R)(h) (Homo sapiens, UniProt P00533, L858R)
T3 construct: purchased Eurofins (KinaseProfiler)

GRK3(h) = target: T4, GRK3(h) (Homo sapiens, UniProt P35626)
T4 construct: purchased Eurofins (KinaseProfiler)
T4 sequence (P35626 1-688): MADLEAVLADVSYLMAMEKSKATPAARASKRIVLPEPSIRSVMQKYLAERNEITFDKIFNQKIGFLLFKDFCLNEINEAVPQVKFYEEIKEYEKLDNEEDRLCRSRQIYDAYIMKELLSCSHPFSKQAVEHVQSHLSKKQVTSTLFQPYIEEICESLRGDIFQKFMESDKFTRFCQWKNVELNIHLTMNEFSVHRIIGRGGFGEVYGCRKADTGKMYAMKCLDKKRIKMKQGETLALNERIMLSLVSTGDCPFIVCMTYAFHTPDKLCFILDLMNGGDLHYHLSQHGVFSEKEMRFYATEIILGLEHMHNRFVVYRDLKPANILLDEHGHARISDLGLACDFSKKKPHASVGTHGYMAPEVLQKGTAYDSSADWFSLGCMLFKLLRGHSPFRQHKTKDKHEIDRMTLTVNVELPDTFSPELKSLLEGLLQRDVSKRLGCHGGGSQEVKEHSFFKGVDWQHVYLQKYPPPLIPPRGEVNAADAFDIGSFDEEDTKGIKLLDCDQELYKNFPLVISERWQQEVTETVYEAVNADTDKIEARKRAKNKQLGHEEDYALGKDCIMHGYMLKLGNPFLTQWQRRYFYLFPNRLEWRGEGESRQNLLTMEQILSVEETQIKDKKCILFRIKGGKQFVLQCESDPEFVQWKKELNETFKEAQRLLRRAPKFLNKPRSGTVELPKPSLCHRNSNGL

NDR2(h) = target: T5, NDR2(h) (Homo sapiens, UniProt Q9Y2H1)
T5 construct: purchased Eurofins (KinaseProfiler)
T5 sequence (Q9Y2H1 whole entry): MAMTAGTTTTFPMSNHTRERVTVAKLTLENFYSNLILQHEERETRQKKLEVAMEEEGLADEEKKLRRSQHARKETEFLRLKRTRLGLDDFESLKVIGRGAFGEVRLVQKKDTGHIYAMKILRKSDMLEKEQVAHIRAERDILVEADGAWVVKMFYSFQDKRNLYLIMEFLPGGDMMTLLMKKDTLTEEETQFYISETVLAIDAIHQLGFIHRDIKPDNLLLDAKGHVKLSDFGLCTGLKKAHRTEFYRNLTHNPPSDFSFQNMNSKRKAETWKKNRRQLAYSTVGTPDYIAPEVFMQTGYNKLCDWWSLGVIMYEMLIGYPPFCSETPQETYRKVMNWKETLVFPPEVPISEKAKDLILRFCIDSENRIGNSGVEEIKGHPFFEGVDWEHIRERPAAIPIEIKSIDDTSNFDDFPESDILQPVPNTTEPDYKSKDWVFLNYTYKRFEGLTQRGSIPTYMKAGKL

NEK4(h) = target: T6, NEK4(h) (Homo sapiens, UniProt P51957)
T6 construct: purchased Eurofins (KinaseProfiler)
T6 sequence (P51957 whole entry): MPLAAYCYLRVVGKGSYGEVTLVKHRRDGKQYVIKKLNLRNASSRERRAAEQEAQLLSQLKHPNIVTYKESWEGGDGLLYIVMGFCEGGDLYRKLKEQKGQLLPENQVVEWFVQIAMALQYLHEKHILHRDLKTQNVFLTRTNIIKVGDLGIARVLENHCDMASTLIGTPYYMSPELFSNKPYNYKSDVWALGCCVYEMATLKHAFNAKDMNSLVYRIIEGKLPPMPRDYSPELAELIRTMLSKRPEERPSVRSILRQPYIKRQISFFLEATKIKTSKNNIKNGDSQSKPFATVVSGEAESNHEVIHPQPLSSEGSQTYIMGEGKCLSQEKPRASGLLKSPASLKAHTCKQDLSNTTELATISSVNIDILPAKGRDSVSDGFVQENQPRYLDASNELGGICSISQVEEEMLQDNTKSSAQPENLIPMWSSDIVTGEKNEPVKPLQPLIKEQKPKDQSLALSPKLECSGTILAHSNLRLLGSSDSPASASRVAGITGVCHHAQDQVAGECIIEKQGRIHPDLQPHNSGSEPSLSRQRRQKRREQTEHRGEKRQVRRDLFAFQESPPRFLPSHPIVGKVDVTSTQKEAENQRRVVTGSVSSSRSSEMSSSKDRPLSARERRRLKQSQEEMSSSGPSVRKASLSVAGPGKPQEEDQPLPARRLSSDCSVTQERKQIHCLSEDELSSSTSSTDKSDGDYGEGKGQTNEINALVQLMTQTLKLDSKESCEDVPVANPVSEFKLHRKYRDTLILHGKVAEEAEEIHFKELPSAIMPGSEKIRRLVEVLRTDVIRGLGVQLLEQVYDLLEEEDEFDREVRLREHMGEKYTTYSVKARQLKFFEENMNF

PIP4K2α(h) = target: T7, PIP4K2α(h) (Homo sapiens, UniProt P48426)
T7 construct: purchased Eurofins (KinaseProfiler)
T7 sequence (P48426 1-406): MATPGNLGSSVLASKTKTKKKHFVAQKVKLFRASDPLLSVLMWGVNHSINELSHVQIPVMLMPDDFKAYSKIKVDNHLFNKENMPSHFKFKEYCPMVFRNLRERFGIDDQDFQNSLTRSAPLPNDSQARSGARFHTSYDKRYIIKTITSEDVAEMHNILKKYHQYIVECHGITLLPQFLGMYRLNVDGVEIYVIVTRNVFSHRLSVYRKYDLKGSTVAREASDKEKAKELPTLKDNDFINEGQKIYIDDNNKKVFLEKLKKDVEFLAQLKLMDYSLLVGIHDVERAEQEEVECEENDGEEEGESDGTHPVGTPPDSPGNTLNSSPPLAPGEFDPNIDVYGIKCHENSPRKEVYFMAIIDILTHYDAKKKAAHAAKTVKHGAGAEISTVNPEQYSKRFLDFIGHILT

PRK2(h) = target: T8, PRK2(h) (Homo sapiens, UniProt Q16513)
T8 construct: purchased Eurofins (KinaseProfiler)
T8 sequence (Q16513 whole entry): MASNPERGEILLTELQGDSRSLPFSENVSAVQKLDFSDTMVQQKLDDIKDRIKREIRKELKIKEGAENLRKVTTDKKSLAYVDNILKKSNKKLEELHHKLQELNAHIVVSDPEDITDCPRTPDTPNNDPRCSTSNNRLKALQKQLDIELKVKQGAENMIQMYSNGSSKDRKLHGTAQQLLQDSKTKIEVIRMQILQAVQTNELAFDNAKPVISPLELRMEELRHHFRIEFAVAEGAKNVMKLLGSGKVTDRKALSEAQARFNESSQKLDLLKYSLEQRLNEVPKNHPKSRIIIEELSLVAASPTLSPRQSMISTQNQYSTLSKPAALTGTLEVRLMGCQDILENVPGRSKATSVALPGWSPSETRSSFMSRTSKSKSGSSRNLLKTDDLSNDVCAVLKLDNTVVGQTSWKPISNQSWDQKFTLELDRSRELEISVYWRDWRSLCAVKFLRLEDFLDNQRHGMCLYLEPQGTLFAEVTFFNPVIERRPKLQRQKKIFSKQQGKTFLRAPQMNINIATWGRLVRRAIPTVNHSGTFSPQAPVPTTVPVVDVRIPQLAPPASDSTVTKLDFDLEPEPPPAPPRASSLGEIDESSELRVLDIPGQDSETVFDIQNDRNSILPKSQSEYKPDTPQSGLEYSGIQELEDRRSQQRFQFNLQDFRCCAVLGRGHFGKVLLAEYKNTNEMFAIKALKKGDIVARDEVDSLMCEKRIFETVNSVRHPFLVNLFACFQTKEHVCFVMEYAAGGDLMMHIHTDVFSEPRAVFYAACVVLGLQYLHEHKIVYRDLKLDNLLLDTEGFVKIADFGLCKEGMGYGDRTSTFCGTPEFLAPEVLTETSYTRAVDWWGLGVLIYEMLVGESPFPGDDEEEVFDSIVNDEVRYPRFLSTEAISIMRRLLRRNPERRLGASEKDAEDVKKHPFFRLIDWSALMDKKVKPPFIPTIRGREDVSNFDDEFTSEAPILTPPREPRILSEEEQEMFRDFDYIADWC

Tie2(Y897S)(h) = target: T9, Tie2(Y897S)(h) (Homo sapiens, UniProt Q02763, Y897S)
T9 construct: purchased Eurofins (KinaseProfiler)
T9 sequence (Q02763 23-1124 Y897S): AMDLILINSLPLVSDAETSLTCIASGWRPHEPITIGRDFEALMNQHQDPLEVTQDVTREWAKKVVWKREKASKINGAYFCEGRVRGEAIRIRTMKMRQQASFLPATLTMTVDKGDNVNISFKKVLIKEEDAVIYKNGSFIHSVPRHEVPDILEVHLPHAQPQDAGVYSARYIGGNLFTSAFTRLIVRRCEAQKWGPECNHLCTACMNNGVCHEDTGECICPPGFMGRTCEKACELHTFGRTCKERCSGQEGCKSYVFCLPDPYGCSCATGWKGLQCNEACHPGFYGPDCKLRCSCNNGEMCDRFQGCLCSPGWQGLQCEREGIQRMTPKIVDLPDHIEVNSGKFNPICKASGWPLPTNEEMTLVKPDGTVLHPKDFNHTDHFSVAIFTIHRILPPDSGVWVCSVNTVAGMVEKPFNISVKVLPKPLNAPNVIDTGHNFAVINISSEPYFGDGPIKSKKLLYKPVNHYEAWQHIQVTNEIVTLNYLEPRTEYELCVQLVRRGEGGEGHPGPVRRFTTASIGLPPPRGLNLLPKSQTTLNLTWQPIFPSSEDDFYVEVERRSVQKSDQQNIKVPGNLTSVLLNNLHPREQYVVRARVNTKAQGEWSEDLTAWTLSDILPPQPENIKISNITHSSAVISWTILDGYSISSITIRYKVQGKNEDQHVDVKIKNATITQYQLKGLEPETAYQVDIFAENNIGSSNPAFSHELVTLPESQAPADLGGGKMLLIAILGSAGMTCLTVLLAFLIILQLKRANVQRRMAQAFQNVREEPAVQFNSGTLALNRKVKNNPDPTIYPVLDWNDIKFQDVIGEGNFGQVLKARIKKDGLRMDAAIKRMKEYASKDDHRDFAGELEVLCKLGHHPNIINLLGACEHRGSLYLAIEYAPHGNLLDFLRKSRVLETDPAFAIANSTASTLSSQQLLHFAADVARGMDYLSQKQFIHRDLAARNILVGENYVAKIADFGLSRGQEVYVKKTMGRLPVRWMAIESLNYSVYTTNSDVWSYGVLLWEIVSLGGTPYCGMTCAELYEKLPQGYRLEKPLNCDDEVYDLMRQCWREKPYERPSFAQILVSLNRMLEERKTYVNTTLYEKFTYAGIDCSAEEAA

## COc1cc(OC)c(Cl)c(-c2ccc3c(NC(=O)c4ccc(N5CCNC(C)(C)C5)cc4)n[nH]c3n2)c1Cl [3D185]
ALK(h); 10 nM
  inhibition at 0.01 µM: -1%
ALK(h); 100 nM
  inhibition at 0.1 µM: 35%
ALK(h); 1000 nM
  inhibition at 1 µM: 82%
CaMKIV(h); 10 nM
  inhibition at 0.01 µM: -6%
CaMKIV(h); 100 nM
  inhibition at 0.1 µM: -21%
CaMKIV(h); 1000 nM
  inhibition at 1 µM: -22%
EGFR(L858R)(h); 10 nM
  inhibition at 0.01 µM: 1%
EGFR(L858R)(h); 100 nM
  inhibition at 0.1 µM: 9%
EGFR(L858R)(h); 1000 nM
  inhibition at 1 µM: 30%
GRK3(h); 10 nM
  inhibition at 0.01 µM: 6%
GRK3(h); 100 nM
  inhibition at 0.1 µM: 3%
GRK3(h); 1000 nM
  inhibition at 1 µM: 3%
NDR2(h); 10 nM
  inhibition at 0.01 µM: 2%
NDR2(h); 100 nM
  inhibition at 0.1 µM: -8%
NDR2(h); 1000 nM
  inhibition at 1 µM: 1%
NEK4(h); 10 nM
  inhibition at 0.01 µM: 16%
NEK4(h); 100 nM
  inhibition at 0.1 µM: 15%
NEK4(h); 1000 nM
  inhibition at 1 µM: 74%
PIP4K2α(h); 10 nM
  inhibition at 0.01 µM: 1%
PIP4K2α(h); 100 nM
  inhibition at 0.1 µM: -2%
PIP4K2α(h); 1000 nM
  inhibition at 1 µM: 4%
PRK2(h); 10 nM
  inhibition at 0.01 µM: 12%
PRK2(h); 100 nM
  inhibition at 0.1 µM: 4%
PRK2(h); 1000 nM
  inhibition at 1 µM: 3%
Tie2(Y897S)(h); 10 nM
  inhibition at 0.01 µM: 14%
Tie2(Y897S)(h); 100 nM
  inhibition at 0.1 µM: 39%
Tie2(Y897S)(h); 1000 nM
  inhibition at 1 µM: 88%
